# Key:
# IL-1β = assay: Western blot of IL-1β in prefrontal cortex brain tissue, acute hypobaric hypoxia model; format: in vivo, cynomolgus monkeys; conditions: FIGS. 3A and 3B
# Description: FIG. 3. […] A. Protein expression of inflammatory factors IL-6, IL-1β and TNF-α in the brain tissue of the prefrontal cortex of cynomolgus monkeys; B. Statistics of protein relative gray scan values. NN: Normobaric Normoxia group (N=3); HH: Hypobaric Hypoxia group (N=3); HH+Triol: Hypobaric Hypoxia with Triol administration group (N=3); HH+PROG: Hypobaric Hypoxia with control drug administration group (N=3). The gray value was obtained by scanning with Image Lab software, and the relative value was obtained after normalizing with α-Tubulin. One-way ANOVA analysis and Dunnutt's t test were used to perform statistical tests, and in the latter each group was compared with the HH group, *, p<0.05; **, p<0.01.
# 1) Preparation of protein samples (see the instructions of M-PER protein lysate): After the cells had been processed for the specified time, the medium was aspirated and then washed with 4° C. pre-chilled PBS (0.01M pH7.2˜7.3) for 3 times. […] 2) BCA protein quantification (see the instructions of BCA protein quantification kit): corresponding components were added to a 96-well detection plate by the ratio of quantification reagent A solution:B solution:ddH2O:protein=100:2:7.5:5, and albumin standards diluted in gradient concentration were added to draw a standard curve. […] After the reaction, the absorbance of each well at a wavelength of 562 nm was detected using a microplate reader. […]
# Iba-1 = Iba-1 immunohistochemical staining of prefrontal cortex brain tissue, acute hypobaric hypoxia model; format: in vivo, cynomolgus monkeys
# Description: FIG. 2. Activation of microglia in the brain tissue of the prefrontal cortex of cynomolgus monkeys. A. Iba-1 immunohistochemical staining of the brain tissue of the prefrontal cortex of cynomolgus monkeys, Iba-1 serves as a marker for microglia activation. The black scale bar is 25 μm and the red scale bar is 200 μm. B. Statistics of Iba-1 relative optical density values. Image pro plus software was used to perform optical density scanning on the immunohistochemical images of each group to obtain the optical density values, which were then normalized with the NN group. NN: Normobaric Normoxia group (n=4); HH: Hypobaric Hypoxia group (n=4); HH+Triol: Hypobaric Hypoxia with Triol administration group (n=3); HH+PROG: Hypobaric Hypoxia with control drug administration group (n=4). […]
# The experiment was carried out according to routine immunohistochemical procedures, as follows: the thickness of paraffin sections of prefrontal cortex tissue of cynomolgus monkeys was 5 μm, and fresh paraffin sections were baked overnight at 37° C. […] Imaging: Nikon ECLIPSE Ti-U inverted fluorescence microscope was used to take pictures of the sections in the bright field, by adjusting the appropriate exposure intensity and background white balance, and fixing the shooting adjustments to take pictures of each group of slices from multiple views and by multiples folds. […]
smiles,measurement,setting,value
"C[C@@]12CCCC1C1C[C@@H](O)[C@@]3(O)C[C@@H](O)CC[C@]3(C)C1CC2 (stereo partly drawn) [Triol, 5α-androst-3β,5,6β-triol]",expression level of IL-1β,IL-1β,significantly reduced
same,number of cells in the activation-like morphology (microglia),Iba-1; FIG. 2,decreased
same,expression of Iba-1,"Iba-1; immunohistochemistry, FIG. 2B",decreased significantly
